≈ marks a conversion by molar mass, not a printed value. Calls of active or inactive are those of the source. No cut-off for these calls is given here.
What was measured:
Staphylococcus aureus [1] = test: Antibacterial activity against Staphylococcus aureus ATCC 29213 assessed as inhibition of bacterial growth incubated for 24 hrs in the presence of 3.125 ug/mL Zn2+ by Muller hinton broth based dilution assay; format: functional
Staphylococcus aureus [2] = test: Antibacterial activity against Methicillin-resistant Staphylococcus aureus NCTC10442 assessed as inhibition of bacterial growth incubated for 24 hrs in the presence of 0.78 ug/mL Zn2+ by Muller hinton broth based dilution assay; format: functional
[3] = Ratio of MIC for antibacterial activity against Escherichia coli ATCC 25922 to MIC for antibacterial activity against Escherichia coli ATCC 25922 in the presence of Zn2+; format: functional
Cell membrane [4] = test: Induction of cell membrane […] in Staphylococcus aureus ATCC 29213 assessed as increase in fluorescence intensity at 2 times to 8 times of MIC measured for 1 hrs in the presence of 12.5 ug/ml Zn2+ by DiSC3 (5) dye based assay; format: subcellular
Pseudomonas aeruginosa [5] = test: Antibacterial activity Pseudomonas aeruginosa ATCC 9027 assessed as inhibition of bacterial growth incubated for 24 hrs in the presence of 25 ug/mL Zn2+ by Muller hinton broth based dilution assay; format: functional
Staphylococcus aureus [6] = test: Antibacterial activity against Methicillin-resistant Staphylococcus aureus NCTC10442 assessed as inhibition of bacterial growth incubated for 24 hrs in the presence of 3.125 ug/mL Zn2+ by Muller hinton broth based dilution assay; format: functional
Staphylococcus aureus [7] = test: Antibacterial activity against Staphylococcus aureus ATCC 29213 assessed as log reduction in bacterial count at 4 times of MIC incubated for 1 hrs in the presence of 12.5 ug/ml Zn2+ by Muller hinton agar based time kill assay; format: functional
Cell membrane [8] = test: Disruption of cell membrane integrity in Escherichia coli ATCC 25922 assessed as increase in red fluorescence at 8 times of MIC measured for 2 hrs in the presence of 12.5 ug/ml Zn2+ by PI and SYTO staining based assay; format: subcellular
[9] = Ratio of MIC for antibacterial activity against Acinetobacter baumannii R2889 to MIC for antibacterial activity against Acinetobacter baumannii R2889 in the presence of Zn2+; format: functional
[10] = Cytotoxicity against mouse NCTC clone 929 cells assessed as reduction in cell survival at 16 times to 32 times of MIC incubated for 24 hrs in the presence of 12.5 ug/ml of Zn2+ by CCK8 assay relative to control; format: toxicity, cell-based; conditions: nctc clone 929, 24 h
Acinetobacter baumannii [11] = test: Antibacterial activity against Acinetobacter baumannii ATCC 17978 assessed as inhibition of bacterial growth by measuring salt resistance incubated for 24 hrs in the presence of 12.5 ug/ml Zn2+ and 175.5 ug/ml K+ by Muller hinton broth based dilution assay; format: functional
Lipopolysaccharide (LPS) = test: Displacement of BODIPY-TR-cadaverin from Pseudomonas aeruginosa Lipopolysaccharide at 1 times of MIC incubated for 30 mins in the presence of 12.5 ug/ml Zn2+ by fluorescence based microplate reader analysis relative to control
Escherichia coli [12] = test: Antibacterial activity against Escherichia coli ATCC 25922 assessed as inhibition of bacterial growth by measuring salt resistance incubated for 24 hrs in the presence of 12.5 ug/ml Zn2+ and 24.3 ug/ml Mg2+ by Muller hinton broth based dilution assay; format: functional
Staphylococcus aureus [13] = test: Antibacterial activity against Methicillin-resistant Staphylococcus aureus N315 assessed as inhibition of bacterial growth by measuring salt resistance incubated for 24 hrs in the presence of 12.5 ug/ml Zn2+ and 3220 ug/ml Na+ by Muller hinton broth based dilution assay; format: functional
Staphylococcus aureus [14] = test: Antibacterial activity against Methicillin-resistant Staphylococcus aureus N315 assessed as inhibition of bacterial growth incubated for 24 hrs in the presence of 12.5 ug/mL Zn2+ by Muller hinton broth based dilution assay; format: functional
Cell membrane [15] = test: Disruption of cell membrane integrity in Escherichia coli ATCC 25922 assessed as increase in fluorescence intensity at 2 times to 8 times of MIC measured for 1 hrs in the presence of 12.5 ug/ml Zn2+ by SYTOX green dye based assay; format: subcellular; conditions: DDE = dose-dependent effect
Staphylococcus aureus [16] = test: Antibacterial activity against Staphylococcus aureus ATCC 29213 assessed as inhibition of bacterial growth incubated for 24 hrs in the presence of 12.5 ug/mL Zn2+ by Muller hinton broth based dilution assay; format: functional
Staphylococcus aureus [17] = test: Antibacterial activity against Methicillin-resistant Staphylococcus aureus N315 assessed as inhibition of bacterial growth by measuring salt resistance incubated for 24 hrs in the presence of 12.5 ug/ml Zn2+ and 24.3 ug/ml Mg2+ by Muller hinton broth based dilution assay; format: functional
Pseudomonas aeruginosa [18] = test: Antibacterial activity against Pseudomonas aeruginosa ATCC 9027 in C57BL/6 mouse model of bacterial keratitis assessed as log reduction in viable bacterial count in infected cornea at 0.5 % pre-infected with bacteria for 24 hrs followed by topical administration of compound four times a day for 3 days in the presence of 12.5 ug/ml of Zn2+; format: functional; conditions: route top, time 3 day
Staphylococcus aureus [19] = test: Antibacterial activity against Staphylococcus aureus ATCC 29213 assessed as inhibition of bacterial growth by measuring salt resistance incubated for 24 hrs in the presence of 12.5 ug/ml Zn2+ and 24.3 ug/ml Mg2+ by Muller hinton broth based dilution assay; format: functional
Pseudomonas aeruginosa [20] = test: Antibacterial activity Pseudomonas aeruginosa ATCC 9027 assessed as inhibition of bacterial growth incubated for 24 hrs in the presence of […] ug/mL Zn2+ by Muller hinton broth based dilution assay; format: functional
Escherichia coli [21] = test: Antibacterial activity Escherichia coli ATCC 25922 assessed as inhibition of bacterial growth incubated for 24 hrs in the presence of 0.39 ug/mL Zn2+ by Muller hinton broth based dilution assay; format: functional
Staphylococcus aureus [22] = test: Antibacterial activity against Methicillin-resistant Staphylococcus aureus N315 assessed as inhibition of bacterial growth by measuring salt resistance incubated for 24 hrs in the presence of 12.5 ug/ml Zn2+ and 100 ug/ml Ca2+ by Muller hinton broth based dilution assay; format: functional
Staphylococcus aureus [23] = test: Antibacterial activity against Staphylococcus aureus ATCC 29213 assessed as inhibition of bacterial growth incubated for 24 hrs in the presence of 6.25 ug/mL Zn2+ by Muller hinton broth based dilution assay; format: functional
Staphylococcus aureus [24] = test: Antibacterial activity against Methicillin-resistant Staphylococcus aureus N315 assessed as inhibition of bacterial growth by measuring salt resistance incubated for 24 hrs in the presence of 12.5 ug/ml Zn2+ and 175.5 ug/ml K+ by Muller hinton broth based dilution assay; format: functional
Escherichia coli [25] = test: Antibacterial activity Escherichia coli ATCC 25922 assessed as inhibition of bacterial growth incubated for 24 hrs by Muller hinton broth based dilution assay; format: functional
Acinetobacter baumannii [26] = test: Antibacterial activity against Acinetobacter baumannii ATCC 17978 assessed as inhibition of bacterial growth by measuring salt resistance incubated for 24 hrs in the presence of 12.5 ug/ml Zn2+ and 3220 ug/ml Na+ by Muller hinton broth based dilution assay; format: functional
Pseudomonas aeruginosa [27] = test: Antibacterial activity Pseudomonas aeruginosa ATCC 9027 assessed as inhibition of bacterial growth incubated for 24 hrs in the presence of 6.25 ug/mL Zn2+ by Muller hinton broth based dilution assay; format: functional

CC(C)=CCn1c2ccccc2c2c(OCC(O)CN(Cc3ccccn3)Cc3ccccn3)cccc21 (stereo not drawn)
MIC (Staphylococcus aureus [1]): 3.12 µg/mL | MIC (Staphylococcus aureus [2]): 1.56 µg/mL | Ratio [3]: 2 | Activity (Cell membrane [4]): Active | MIC (Pseudomonas aeruginosa [5]): 3.12 µg/mL | MIC (Staphylococcus aureus [6]): 1.56 µg/mL | log(activity) (Staphylococcus aureus [7]): 3.03 | Activity (Cell membrane [8]): Active | Ratio [9]: 2 | Activity [10]: 71.58% | MIC (Acinetobacter baumannii [11]): 0.78 µg/mL | Activity (Lipopolysaccharide (LPS)): 20.8% | MIC (Escherichia coli [12]): 3.12 µg/mL | MIC (Staphylococcus aureus [13]): 0.78 µg/mL | MIC (Staphylococcus aureus [14]): 0.78 µg/mL | Activity (Cell membrane [15]): Dde | MIC (Staphylococcus aureus [16]): 1.56 µg/mL | MIC (Staphylococcus aureus [17]): 1.56 µg/mL | log(activity) (Pseudomonas aeruginosa [18]): 4.46 | MIC (Staphylococcus aureus [19]): 1.56 µg/mL | MIC (Pseudomonas aeruginosa [20]): 50 µg/mL | MIC (Escherichia coli [21]): 6.25 µg/mL | MIC (Staphylococcus aureus [22]): 3.12 µg/mL | MIC (Staphylococcus aureus [23]): 1.56 µg/mL | MIC (Staphylococcus aureus [24]): 0.78 µg/mL | MIC (Escherichia coli [25]): 6.25 µg/mL (≈ 12.3 µM) | MIC (Acinetobacter baumannii [26]): 0.78 µg/mL | MIC (Pseudomonas aeruginosa [27]): 3.12 µg/mL
